Source: ChEMBL document CHEMBL1130558, “Synthesis and preliminary structure-activity relationships of 1-[(3-fluoro-4-pyridinyl)amino]-3-methyl-1H-indol-5-yl methyl carbamate (P10358), a novel acetylcholinesterase inhibitor” (Bioorg Med Chem Lett, 1997)
The source made the active and inactive calls.

Legend:
[1] = tested on: Mus musculus; experiment: Compound evaluated in vivo for reversing the Scopolamine dementia dark avoidance (SDDA) in mice expressed number of active dosages versus the total number of dosages evaluated; 5/7 and active; format: functional, organism-based
[2] = target: T1, Acetylcholinesterase (Rattus norvegicus) (UniProt P37136); experiment: Compound was evaluated ex vivo for the inhibition of acetylcholinesterase (AChEI) one hour after oral administration
T1 sequence (whole entry): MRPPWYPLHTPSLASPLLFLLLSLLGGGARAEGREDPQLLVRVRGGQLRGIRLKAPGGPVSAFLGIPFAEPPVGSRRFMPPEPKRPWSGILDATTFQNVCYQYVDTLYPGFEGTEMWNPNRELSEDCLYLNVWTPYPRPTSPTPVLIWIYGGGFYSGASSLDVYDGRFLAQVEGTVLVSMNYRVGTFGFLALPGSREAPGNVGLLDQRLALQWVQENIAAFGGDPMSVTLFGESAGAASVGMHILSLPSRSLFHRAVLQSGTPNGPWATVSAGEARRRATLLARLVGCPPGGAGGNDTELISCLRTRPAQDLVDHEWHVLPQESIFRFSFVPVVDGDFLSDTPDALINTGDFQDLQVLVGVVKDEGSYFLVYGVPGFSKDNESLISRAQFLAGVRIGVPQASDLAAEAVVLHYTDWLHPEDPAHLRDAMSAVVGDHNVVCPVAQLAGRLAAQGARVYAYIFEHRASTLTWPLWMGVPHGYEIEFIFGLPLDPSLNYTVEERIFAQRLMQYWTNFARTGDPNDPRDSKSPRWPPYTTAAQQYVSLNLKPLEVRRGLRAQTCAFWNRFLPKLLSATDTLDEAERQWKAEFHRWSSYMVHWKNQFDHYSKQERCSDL

[3] = tested on: Mus musculus; experiment: The percent of animals in the scopolamine-drug group with latencies greater than the cutoff time at subcutaneous dose of 0.003 mg/kg; format: functional
[4] = tested on: Mus musculus; experiment: The percent of animals in the scopolamine-drug group with latencies greater than the cutoff time at subcutaneous dose of 1.0 mg/kg; format: functional
[5] = tested on: Mus musculus; experiment: The percent of animals in the scopolamine-drug group with latencies greater than the cutoff time at subcutaneous dose of 0.1 mg/kg; format: functional
[6] = target: T2, Acetylcholinesterase (Rattus norvegicus, UniProt P37136); experiment: Compound was evaluated in vitro in rats for the inhibition of brain (striatal) acetylcholinesterase (AChEI) using acetylthiocholine as substrate; 0.0026-0.031
T2 sequence (P37136 whole entry): T1 sequence (whole entry)

[7] = tested on: Mus musculus; experiment: The percent of animals in the scopolamine-drug group with latencies greater than the cutoff time at subcutaneous dose of 0.01 mg/kg; format: functional
[8] = tested on: Mus musculus; experiment: The percent of animals in the scopolamine-drug group with latencies greater than the cutoff time at subcutaneous dose of 0.001 mg/kg; format: functional
[9] = target: T3, Cholinesterase (Homo sapiens, UniProt P06276); experiment: In vitro inhibition of human serum Butyrylcholinesterase using butyrylthiocholine as substrate; 0.00029-0.001
[10] = target: T1, Acetylcholinesterase (Rattus norvegicus); experiment: Tested for percent ex vivo inhibition of rat striatal acetylcholinesterase at peroral dose of 20 mg/kg at 4 hr; format: organism-based; set-up: dose 20 mg/kg
[11] = target: T2, Acetylcholinesterase; experiment: Compound was evaluated in vitro in rats for the inhibition of brain (striatal) acetylcholinesterase (AChEI) using acetylthiocholine as substrate; 3.3-4.8
[12] = tested on: Mus musculus; experiment: Compound was evaluated in vivo for the significant activity at all doses in reversing the Scopolamine dementia dark avoidance (SDDA) in mice; 2/3; format: functional
[13] = target: T3, Cholinesterase; experiment: In vitro inhibition of human serum Butyrylcholinesterase using butyrylthiocholine as substrate; 0.69-1.2
[14] = tested on: Mus musculus; experiment: The percent of animals in the scopolamine-drug group with latencies greater than the cutoff time at subcutaneous dose of 3.0 mg/kg; format: functional
[15] = target: T1, Acetylcholinesterase (Rattus norvegicus); experiment: Tested for percent ex vivo inhibition of rat striatal acetylcholinesterase at peroral dose of 20 mg/kg at 24 hr; format: organism-based; set-up: dose 20 mg/kg
[16] = target: T1, Acetylcholinesterase (Rattus norvegicus); experiment: Dose required to exhibit robust maximal effect for acetylcholinesterase (AChE) inhibition following intraperitoneal administration
[17] = target: T1, Acetylcholinesterase (Rattus norvegicus); experiment: Tested for percent ex vivo inhibition of rat striatal acetylcholinesterase at peroral dose of 10 mg/kg at 1 hr; format: organism-based; set-up: dose 10 mg/kg
[18] = target: T1, Acetylcholinesterase (Rattus norvegicus); experiment: Tested for percent ex vivo inhibition of rat striatal acetylcholinesterase at peroral dose of 10 mg/kg at 6 hr; format: organism-based; set-up: dose 10 mg/kg
[19] = target: T1, Acetylcholinesterase (Rattus norvegicus); experiment: Tested for percent ex vivo inhibition of rat striatal acetylcholinesterase at peroral dose of 20 mg/kg at 1 hr; format: organism-based; set-up: dose 20 mg/kg
[20] = target: T1, Acetylcholinesterase (Rattus norvegicus); experiment: Tested for percent ex vivo inhibition of rat striatal acetylcholinesterase at peroral dose of 10 mg/kg at 4 hr; format: organism-based; set-up: dose 10 mg/kg
[21] = target: T3, Cholinesterase; experiment: In vitro inhibition of human serum Butyrylcholinesterase using butyrylthiocholine as substrate; 0.15-0.22
[22] = tested on: Mus musculus; experiment: The percent of animals in the scopolamine-drug group with latencies greater than the cutoff time at subcutaneous dose of 0.3 mg/kg; format: functional
[23] = target: T1, Acetylcholinesterase (Rattus norvegicus); experiment: Tested for percent ex vivo inhibition of rat striatal acetylcholinesterase at peroral dose of 20 mg/kg at 6 hr; format: organism-based; set-up: dose 20 mg/kg
[24] = target: T2, Acetylcholinesterase; experiment: Compound was evaluated in vitro in rats for the inhibition of brain (striatal) acetylcholinesterase (AChEI) using acetylthiocholine as substrate; 0.084-0.19
[25] = target: T1, Acetylcholinesterase (Rattus norvegicus); experiment: Tested for percent ex vivo inhibition of rat striatal acetylcholinesterase at peroral dose of 10 mg/kg at 24 hr; format: organism-based; set-up: dose 10 mg/kg
[26] = tested on: Mus musculus; experiment: The percent of animals in the scopolamine-drug group with latencies greater than the cutoff time at subcutaneous dose of 0.03 mg/kg; format: functional
[27] = tested on: Mus musculus; experiment: Compound evaluated in vivo for reversing the Scopolamine dementia dark avoidance (SDDA) in mice expressed number of active dosages versus the total number of dosages evaluated; 3/3 and active; format: functional, organism-based
[28] = target: T4, Acetylcholine receptor subunit delta (Torpedo californica) (UniProt P02718); experiment: In vitro inhibition of Nicotinic acetylcholine receptor stimulation; NI=No inhibition
T4 sequence (whole entry): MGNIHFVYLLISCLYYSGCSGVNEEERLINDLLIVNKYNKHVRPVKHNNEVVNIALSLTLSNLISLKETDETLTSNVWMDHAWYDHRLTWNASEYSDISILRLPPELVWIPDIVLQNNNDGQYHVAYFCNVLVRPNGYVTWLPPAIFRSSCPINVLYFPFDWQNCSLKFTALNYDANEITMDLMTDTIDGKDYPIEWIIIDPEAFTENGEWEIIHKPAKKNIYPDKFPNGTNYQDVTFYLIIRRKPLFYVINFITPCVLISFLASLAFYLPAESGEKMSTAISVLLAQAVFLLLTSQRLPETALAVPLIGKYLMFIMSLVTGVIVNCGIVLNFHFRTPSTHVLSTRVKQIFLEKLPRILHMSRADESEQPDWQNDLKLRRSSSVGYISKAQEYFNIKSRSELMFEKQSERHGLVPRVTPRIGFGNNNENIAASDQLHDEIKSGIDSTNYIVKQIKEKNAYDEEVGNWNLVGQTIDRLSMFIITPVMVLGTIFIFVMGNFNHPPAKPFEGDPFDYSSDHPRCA

[29] = target: T5, Muscarinic acetylcholine receptor M4 (Homo sapiens) (UniProt P08173); experiment: In vitro inhibition of muscarinic receptor stimulation; NI=No inhibition
T5 sequence (whole entry): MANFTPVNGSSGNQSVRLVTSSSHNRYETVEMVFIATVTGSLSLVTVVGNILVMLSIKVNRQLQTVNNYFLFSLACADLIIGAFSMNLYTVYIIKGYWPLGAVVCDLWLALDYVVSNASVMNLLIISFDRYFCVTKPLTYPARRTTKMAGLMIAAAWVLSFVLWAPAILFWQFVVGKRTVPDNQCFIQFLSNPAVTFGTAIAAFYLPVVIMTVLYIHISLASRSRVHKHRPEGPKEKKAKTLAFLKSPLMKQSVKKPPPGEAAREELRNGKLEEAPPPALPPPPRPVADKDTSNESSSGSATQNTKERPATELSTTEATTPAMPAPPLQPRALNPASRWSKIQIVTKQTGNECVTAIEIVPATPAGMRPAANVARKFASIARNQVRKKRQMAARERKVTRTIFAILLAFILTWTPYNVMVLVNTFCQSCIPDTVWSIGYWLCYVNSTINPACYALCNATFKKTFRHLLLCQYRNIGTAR

[30] = tested on: Mus musculus; experiment: The percent of animals in the scopolamine-drug group with latencies greater than the cutoff time at subcutaneous dose of 0.63 mg/kg; format: functional
[31] = target: T2, Acetylcholinesterase; experiment: Compound was evaluated in vitro in rats for the inhibition of brain (striatal) acetylcholinesterase (AChEI) using acetylthiocholine as substrate; 0.024-0.14
[32] = tested on: Mus musculus; experiment: Compound was evaluated in vivo for the significant activity at all doses in reversing the Scopolamine dementia dark avoidance (SDDA) in mice; 1/6; format: functional
[33] = target: T3, Cholinesterase; experiment: In vitro inhibition of human serum Butyrylcholinesterase using butyrylthiocholine as substrate; 0.023-0.041
[34] = tested on: Mus musculus; experiment: The percent of animals in the scopolamine-drug group with latencies greater than the cutoff time at subcutaneous dose of 5 mg/kg; format: functional
[35] = tested on: Mus musculus; experiment: The percent of animals in the scopolamine-drug group with latencies greater than the cutoff time at subcutaneous dose of 1.25 mg/kg; format: functional
[36] = tested on: Mus musculus; experiment: The percent of animals in the scopolamine-drug group with latencies greater than the cutoff time at subcutaneous dose of 0.04 mg/kg;; format: functional
[37] = tested on: Mus musculus; experiment: Compound evaluated in vivo for reversing the Scopolamine dementia dark avoidance (SDDA) in mice expressed number of active dosages versus the total number of dosages evaluated; 4/9 and active; format: functional, organism-based
[38] = target: T3, Cholinesterase; experiment: In vitro inhibition of human serum Butyrylcholinesterase using butyrylthiocholine as substrate; 0.01-0.069
[39] = target: T2, Acetylcholinesterase; experiment: Compound was evaluated in vitro in rats for the inhibition of brain (striatal) acetylcholinesterase (AChEI) using acetylthiocholine as substrate; 0.014-0.14
[40] = tested on: Mus musculus; experiment: The percent of animals in the scopolamine-drug group with latencies greater than the cutoff time at subcutaneous dose of 2.5 mg/kg; format: functional
[41] = target: T2, Acetylcholinesterase; experiment: Compound was evaluated in vitro in rats for the inhibition of brain (striatal) acetylcholinesterase (AChEI) using acetylthiocholine as substrate; 21-88

T3 sequence (P06276 whole entry): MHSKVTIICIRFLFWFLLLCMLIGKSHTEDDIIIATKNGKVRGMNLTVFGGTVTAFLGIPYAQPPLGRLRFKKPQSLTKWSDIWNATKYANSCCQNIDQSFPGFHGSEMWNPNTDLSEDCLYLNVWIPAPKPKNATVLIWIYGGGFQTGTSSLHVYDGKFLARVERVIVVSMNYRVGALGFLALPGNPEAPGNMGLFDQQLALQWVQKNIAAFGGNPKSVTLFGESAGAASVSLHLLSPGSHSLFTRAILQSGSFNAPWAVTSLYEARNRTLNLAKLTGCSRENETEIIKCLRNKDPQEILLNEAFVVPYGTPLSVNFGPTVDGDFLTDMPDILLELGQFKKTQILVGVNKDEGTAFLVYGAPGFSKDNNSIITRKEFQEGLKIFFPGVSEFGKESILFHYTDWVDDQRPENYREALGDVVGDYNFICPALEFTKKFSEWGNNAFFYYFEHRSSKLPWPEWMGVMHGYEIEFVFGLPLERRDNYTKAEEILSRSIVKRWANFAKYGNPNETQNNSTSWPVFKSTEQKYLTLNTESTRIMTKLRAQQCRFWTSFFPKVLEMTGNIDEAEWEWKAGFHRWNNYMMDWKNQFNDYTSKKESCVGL

CCCCCCCNC(=O)Oc1ccc2c(c1)[C@]1(C)CCN(C)[C@@H]1N2C [EPTASTIGMINE]
Activity [1]: Active
ED50 [2]: 10.1 mg/kg
Response [3]: 53%
Response [4]: 20%
Response [5]: 33%
IC50 [6]: 9 nM
Response [7]: 45%
Response [8]: 40%
IC50 [9]: 0.69 nM

CCCCNC(=O)Oc1ccc2c(c1)c(C)cn2N(CCC)c1ccncc1F
inhibition [10]: 26%
IC50 [11]: 4000 nM
Activity [12]: 2
IC50 [13]: 920 nM
Response [4]: 33%
Response [14]: 33%
inhibition [15]: 11%

CNC(=O)Oc1ccc2c(c1)c(C)cn2Nc1ccncc1F
inhibition [10]: 84%
DOSE [16]: 0.625 mg/kg
inhibition [17]: 67%
ED50 [2]: 8.3 mg/kg
inhibition [18]: 3%
inhibition [19]: 82%
inhibition [20]: 56%
IC50 [21]: 190 nM
Response [22]: 28%
inhibition [23]: 82%
Response [5]: 21%
IC50 [24]: 130 nM
inhibition [25]: 0%
Response [26]: 40%
Activity [27]: Active
inhibition [15]: 20%

CCCN(c1ccncc1)n1ccc2ccccc21
Activity [28]: inactive
Activity [29]: inactive

CCCN(c1ccncc1F)n1cc(C)c2cc(OC(=O)NC)ccc21
inhibition [10]: 41%
Response [30]: 27%
IC50 [31]: 58 nM
inhibition [19]: 50%
Activity [32]: 1
inhibition [15]: 9%
IC50 [33]: 31 nM

CCCN(c1ccncc1F)n1cc(C)c2cc(OC(=O)NCc3ccccc3)ccc21
inhibition [10]: 12%
inhibition [19]: 15%
inhibition [23]: 6%
Response [34]: 20%
Response [35]: 20%
Response [36]: 20%
Activity [37]: Active
IC50 [38]: 27 nM
IC50 [39]: 43 nM
inhibition [15]: 2%
Response [40]: 20%

CCCCCCCNC(=O)Oc1ccc2c(c1)c(C)cn2N(CCC)c1ccncc1F
IC50 [41]: 43000 nM
